Series [1] is described as follows: Environmentally / nationally acceptable toxicity assessment. The settings on record: concluded from result > about 10,000 mg/L for the species tested. The text has this:
According to still other embodiments described herein, a disulfonate salt of 2,4-pentanedione is provided. According to one such embodiment, the salt comprises 2,4-pentanedione-1,5-sodium disulfonate. According to another such embodiment, a disulfonate salt of 2,4-pentanedione has an environmentally acceptable toxicity. As used herein, the term “environmentally acceptable toxicity” means that, when tested according to procedures that are the same as or equivalent to those set forth by the OSPAR Guidelines for Completing the Harmonised Offshore Chemical Notification Format (HOCNF) (References number: 2003-1) that were in effect on Dec. 31, 2004, the salt is determined to have a toxicity of greater than about 10,000 mg/L for an algae (skeletonema costatum), a crustacean (acartia tonsa), a fish (scopthalmus) and a sediment reworker (corophium volutator).
According to yet another embodiment, a disulfonate salt of 2,4-pentanedione has a “nationally acceptable toxicity.” As used herein, the term “nationally acceptable toxicity” means that when tested according to procedures that are the same as or equivalent to those in effect in a country of interest on Dec. 31, 2004, the salt is determined to have a toxicity acceptable for use in the areas subject to such country's procedures. […]

Series [2] deals with scopthalmus. The experiment in a line: Toxicity to fish, OSPAR Protocols Part B. It counts as in vivo. The settings on record: amount required to kill or incapacitate half the test population per amount of water. An excerpt: (§1) According to still other embodiments described herein, a disulfonate salt of 2,4-pentanedione is provided. According to one such embodiment, the salt comprises 2,4-pentanedione-1,5-sodium disulfonate. According to another such embodiment, a disulfonate salt of 2,4-pentanedione has an environmentally acceptable toxicity. As used herein, the term “environmentally acceptable toxicity” means that, when tested according to procedures that are the same as or equivalent to those set forth by the OSPAR Guidelines for Completing the Harmonised Offshore Chemical Notification Format (HOCNF) (References number: 2003-1) that were in effect on Dec. 31, 2004, the salt is determined to have a toxicity of greater than about 10,000 mg/L for an algae (skeletonema costatum), a crustacean (acartia tonsa), a fish (scopthalmus) and a sediment reworker (corophium volutator). […]
(§2) In this Example 3, the toxicity results for the skeletonema costatum were determined according to ISO (International Organization for Standardization) 10253, the protocol for which is known to those of ordinary skill in the art, and is also the protocol required under the above-referenced HOCNF Guidelines. The toxicity results for the acartia tonsa were determined according to ISO 14669, the protocol for which is known to those of ordinary skill in the art. […]

The nature of series [3]: Solubility of salt versus free acid on methanol rinse. The settings on record: compared to 2,4-pentanedione-1,5-disulfonic free acid. Format: physicochemical. The text has this:
The neutralized product was then rinsed several times with methanol to remove by-product acids, or any salts formed therefrom, while leaving the 2,4-pentanedione-1,5-sodium disulfonate primarily undissolved. […] The rinsed product was dried in a vacuum oven and filtered through a 300 mesh screen to afford a flowing pale orange/red powder. The resulting powder was 2,4-pentanedione-1,5-sodium disulfonate.

For series [4], the system named is corophium volutator. The experiment in a line: Toxicity to sediment reworker, OSPAR Protocols Part B. It counts as in vivo. The settings on record: amount required to kill or incapacitate half the test population per amount of water.
From the text: as §1, §2

The subject of series [5] is skeletonema costatum. In words: Toxicity to algae, ISO 10253 (OSPAR HOCNF). Format: in vivo. The settings on record: amount required to kill or incapacitate half the test population per amount of water.
From the text: as §1, §2

For series [6], the system named is acartia tonsa. The experiment in a line: Toxicity to crustacean, ISO 14669. It counts as in vivo. The settings on record: amount required to kill or incapacitate half the test population per amount of water.
From the text: as §1, §2

Molecules are shown by their SMILES.

With `O=C(CC(=O)CS(=O)(=O)[O-])CS(=O)(=O)[O-].[Na+].[Na+]` [2,4-pentanedione-1,5-sodium disulfonate], the toxicity acceptability entry in series [1] is on record as “low toxicity”. The toxicity entry in series [2], in series [4], in series [5] and in series [6] was “greater than 10,000 mg/L” each time. Further, the “solubility compared to the free acid” value in series [3] is recorded as “significantly less soluble”.

The values are drawn from patent US7293941B2, “Methods for cementing using compositions containing salts” (Halliburton Energy Services, Inc., priority 2005, dated 2007).
